By IC50 is commonly meant the midpoint of a concentration-inhibition curve. A low value points to inhibition by little substance.

Structures are written as SMILES. Structures can show the parent of a compound that is named as a salt.

The subject of the first assay is Aβ42 production in H4 cells stably transfected with APP751 containing the Swedish mutation (H4 APP751 SWE clone 8.20). Description: Cellular assay for inhibition of Aβ1-42 production (H4 APP751 SWE clone 8.20). Type of assay: cell-based. The note with it: H4 APP751 SWE clone 8.20 cells, 19 h incubation; Table 5A, 6-alkyl and 6-substituted phenyl thiazine examples. The method, then: Cellular Assays for Inhibition of Aβ1-40 and Aβ1-42 Production
H4 cells stably transfected with APP751 containing the Swedish mutation (H4 APP751 SWE clone 8.20, developed at BMS) were maintained in log phase through twice weekly passage at a 1:20 split. […] Following incubation for 19 h in 5% CO2 at 37° C., plates were briefly centrifuged (1000 rpm, 5 min). A 10 μl aliquot from each well was transferred to a second assay plate (Costar 3709) for Aβ40 measurements. Antibody cocktails were freshly prepared by dilution into 40 mM Tris-HCl (pH 7.4) with 0.2% BSA and added to assay plates. For Aβ42 measurements, antibodies specific for the Aβ42 neoepitope (565, developed at BMS; conjugated to the Wallac reagent (Perkin Elmer)) and the N-terminal sequence of Aβ peptide (26D6, developed at SIBIA; conjugated to APC (Perkin Elmer)) were mixed and 20 μl of the mixture was added to each well of the incubated cell plate yielding a final concentration of 0.8 ng/well 565 and 75 ng/well 26D6. For the Aβ40 measurements, antibodies specific for the Aβ40 neoepitope (TSD, developed at BMS; conjugated to the Wallac reagent (Perkin Elmer)) and 26D6 as described above were mixed and 20 μl of the mixture was added to the 10 μl aliquots which had been removed previously from the cell plate yielding a final concentration of 1.6 ng/well TSD and 17.5 ng/well 26D6. Assay plates containing antibodies were sealed with aluminum foil and incubated overnight at 4° C. Signal was determined using a Viewlux counter (Perkin Elmer) and IC50 values determined using curve fitting in CurveMaster (Excel Fit based).
`COc1ccc([C@@H]2C[C@@H](c3cc(-c4cncnc4)c(F)cc3F)N=C(N)S2)cc1OC` (racemic) [Example 1, (±)-4-(2,4-difluoro-5-(pyrimidin-5-yl)phenyl)-6-(3,4-dimethoxyphenyl)-5,6-dihydro-4H-1,3-thiazin-2-amine] had an IC50 of 1100 nM. On to `NC1=N[C@H](c2cccc(-c3cncnc3)c2)C[C@@H](c2ccccc2)S1` (racemic) [Example 2, (±)-6-phenyl-4-(3-(pyrimidin-5-yl)phenyl)-5,6-dihydro-4H-1,3-thiazin-2-amine], for which inhibition was half-maximal at 4100 nM (IC50). For the compound `COc1ccc([C@@H]2C[C@@H](c3cccc(-c4cncnc4)c3)N=C(N)S2)cc1OC` (racemic) [Example 3, (±)-6-(3,4-dimethoxyphenyl)-4-(3-(pyrimidin-5-yl)phenyl)-5,6-dihydro-4H-1,3-thiazin-2-amine], inhibition was half-maximal at 1100 nM (IC50).

Take `NC1=N[C@H](c2cccc(-c3cncnc3)c2)C[C@@H](Cc2ccccc2)S1` (racemic) [Example 4, (±)-6-benzyl-4-(3-(pyrimidin-5-yl)phenyl)-5,6-dihydro-4H-1,3-thiazin-2-amine]: half-maximal inhibition (IC50) was put at 7400 nM. The compound `NC1=N[C@H](c2cccc(-c3cncnc3)c2)C[C@@H](C2CCCCC2)S1` (racemic) [Example 5, (±)-6-cyclohexyl-4-(3-(pyrimidin-5-yl)phenyl)-5,6-dihydro-4H-1,3-thiazin-2-amine] came in with a half-maximal inhibitory concentration (IC50) of 3800 nM. The compound `C=CCC[C@@H]1C[C@@H](c2cccc(-c3cncnc3)c2)N=C(N)S1` (racemic) [Example 6, (±)-6-(but-3-enyl)-4-(3-(pyrimidin-5-yl)phenyl)-5,6-dihydro-4H-1,3-thiazin-2-amine] returned a 50% inhibitory concentration (IC50) of 14000 nM. This IC50 lies about 3.7-fold higher than the previous one. In turn, `COc1ccc([C@@H]2C[C@@H](c3ccc(F)c(-c4cncnc4)c3)N=C(N)S2)cc1OC` (racemic) [Example 7, (±)-6-(3,4-dimethoxyphenyl)-4-(4-fluoro-3-(pyrimidin-5-yl)phenyl)-5,6-dihydro-4H-1,3-thiazin-2-amine] came in with a half-inhibitory concentration (IC50) of 1700 nM. `COc1ccc([C@@H]2C[C@@H](c3cc(-c4cncnc4)ccc3F)N=C(N)S2)cc1OC` (racemic) [Example 8, (±)-6-(3,4-dimethoxyphenyl)-4-(2-fluoro-5-(pyrimidin-5-yl)phenyl)-5,6-dihydro-4H-1,3-thiazin-2-amine] gave an IC50 of 1900 nM. Same read-out and setting: to `NC1=N[C@H](c2cccc(-c3cncnc3)c2)C[C@@H](c2ccc(OC(F)(F)F)cc2)S1` (racemic) [Example 9, (±)-4-(3-(pyrimidin-5-yl)phenyl)-6-(4-(trifluoromethoxy)phenyl)-5,6-dihydro-4H-1,3-thiazin-2-amine] belongs 8900 nM. The compound `COc1ccccc1[C@@H]1C[C@@H](c2cccc(-c3cncnc3)c2)N=C(N)S1` (racemic) [Example 11, (±)-6-(2-methoxyphenyl)-4-(3-(pyrimidin-5-yl)phenyl)-5,6-dihydro-4H-1,3-thiazin-2-amine•TFA] returned an IC50 of 2400 nM. On to `N#Cc1ccc([C@@H]2C[C@@H](c3cccc(-c4cncnc4)c3)N=C(N)S2)cc1` (racemic) [Example 12, 4-((±)-2-amino-4-(3-(pyrimidin-5-yl)phenyl)-5,6-dihydro-4H-1,3-thiazin-6-yl)benzonitrile], for which the IC50 was found to be 1800 nM. On the same count and under the same terms, to `COc1ccc([C@@H]2C[C@@H](c3cccc(-c4cncnc4)c3)N=C(N)S2)cc1` (racemic) [Example 13, (±)-6-(4-methoxyphenyl)-4-(3-(pyrimidin-5-yl)phenyl)-5,6-dihydro-4H-1,3-thiazin-2-amine] belongs 3700 nM. With `NC1=N[C@H](c2cccc(-c3cncnc3)c2)C[C@@H](c2ccc(Cl)cc2)S1` (racemic) [Example 14, (±)-6-(4-chlorophenyl)-4-(3-(pyrimidin-5-yl)phenyl)-5,6-dihydro-4H-1,3-thiazin-2-amine•TFA], the IC50 is 2700 nM. On to `COc1cccc([C@@H]2C[C@@H](c3cccc(-c4cncnc4)c3)N=C(N)S2)c1` (racemic) [Example 15, (±)-6-(3-methoxyphenyl)-4-(3-(pyrimidin-5-yl)phenyl)-5,6-dihydro-4H-1,3-thiazin-2-amine•TFA], for which the IC50 worked out at 2800 nM. The IC50 values of the last two compounds are within 1.5-fold of each other. On to `NC1=N[C@H](c2cccc(-c3cncnc3)c2)C[C@@H](c2ccc(F)cc2)S1` (racemic) [Example 16, (±)-6-(4-fluorophenyl)-4-(3-(pyrimidin-5-yl)phenyl)-5,6-dihydro-4H-1,3-thiazin-2-amine•TFA], for which the IC50 was 2600 nM. The same measure, in the same setting: the value for `COc1ccc([C@]23CCCCC2[C@@H](c2cccc(-c4cncnc4)c2)N=C(N)S3)cc1` (mixture of isomers) [Example 17, (±)-8a-(4-methoxyphenyl)-4-(3-(pyrimidin-5-yl)phenyl)-4a,5,6,7,8,8a-hexahydro-4H-benzo[e][1,3]thiazin-2-amine•TFA] was 3300 nM. Take `COc1ccc([C@@H]2C[C@@H](c3cc(-c4cncnc4)cs3)N=C(N)S2)cc1OC` (racemic) [Example 30, (±)-6-(3,4-dimethoxyphenyl)-4-(4-(pyrimidin-5-yl)thiophen-2-yl)-5,6-dihydro-4H-1,3-thiazin-2-amine]: the IC50 was found to be 8000 nM.

Compound `COc1ccc([C@@H]2C[C@@H](c3cccc(-c4cccc(C#N)c4)c3)N=C(N)S2)cc1OC` (racemic) [Example 31, 3′-((±)-2-amino-6-(3,4-dimethoxyphenyl)-5,6-dihydro-4H-1,3-thiazin-4-yl)biphenyl-3-carbonitrile] came in with an IC50 of 8900 nM.

Staying with this assay, now noted: H4 APP751 SWE clone 8.20 cells, 19 h incubation; Table 5B, 6-heterocyclic thiazine examples.
For `Cc1n[nH]c(C)c1[C@@H]1C[C@@H](c2cccc(-c3cncnc3)c2)N=C(N)S1` (racemic) [Example 18, (±)-6-(3,5-dimethyl-1H-pyrazol-4-yl)-4-(3-(pyrimidin-5-yl)phenyl)-5,6-dihydro-4H-1,3-thiazin-2-amine•TFA], the midpoint of inhibition, the IC50, lay at 7100 nM. Same read-out and setting: to `Cc1noc(C)c1[C@@H]1C[C@@H](c2cccc(-c3cncnc3)c2)N=C(N)S1` (racemic) [Example 19, (±)-6-(3,5-dimethylisoxazol-4-yl)-4-(3-(pyrimidin-5-yl)phenyl)-5,6-dihydro-4H-1,3-thiazin-2-amine•TFA] belongs 230 nM. Take `NC1=N[C@H](c2cccc(-c3cncnc3)c2)C[C@@H](c2cccnc2)S1` (racemic) [Example 20, (±)-6-(pyridin-3-yl)-4-(3-(pyrimidin-5-yl)phenyl)-5,6-dihydro-4H-1,3-thiazin-2-amine•TFA]: the IC50 came out at 7800 nM. `NC1=N[C@H](c2cccc(-c3cncnc3)c2)C[C@@H](c2c[nH]cn2)S1` (racemic) [Example 21, (±)-6-(1H-imidazol-4-yl)-4-(3-(pyrimidin-5-yl)phenyl)-5,6-dihydro-4H-1,3-thiazin-2-amine•TFA]: the IC50 is greater than 30000 nM. The compound `NC1=N[C@H](c2cccc(-c3cncnc3)c2)C[C@@H](c2ccccn2)S1` (racemic) [Example 22, (±)-6-(pyridin-2-yl)-4-(3-(pyrimidin-5-yl)phenyl)-5,6-dihydro-4H-1,3-thiazin-2-amine•TFA] had an IC50 of 2000 nM. This lies in the single-digit micromolar range. Same read-out and setting: the value for `NC1=N[C@H](c2cccc(-c3cncnc3)c2)C[C@@H](c2cnccn2)S1` (racemic) [Example 23, (±)-6-(pyrazin-2-yl)-4-(3-(pyrimidin-5-yl)phenyl)-5,6-dihydro-4H-1,3-thiazin-2-amine•TFA] was 2400 nM.

In turn, `Cc1ncsc1[C@@H]1C[C@@H](c2cccc(-c3cncnc3)c2)N=C(N)S1` (racemic) [Example 24, (±)-6-(4-methylthiazol-5-yl)-4-(3-(pyrimidin-5-yl)phenyl)-5,6-dihydro-4H-1,3-thiazin-2-amine•TFA] returned an IC50 of 1000 nM. Same read-out and setting: to `Cc1c([C@@H]2C[C@@H](c3cccc(-c4cncnc4)c3)N=C(N)S2)cnn1C` (racemic) [Example 25, (±)-6-(1,5-dimethyl-1H-pyrazol-4-yl)-4-(3-(pyrimidin-5-yl)phenyl)-5,6-dihydro-4H-1,3-thiazin-2-amine•TFA] belongs 3400 nM; to `Cc1nn(C)cc1[C@@H]1C[C@@H](c2cccc(-c3cncnc3)c2)N=C(N)S1` (racemic) [Example 26, (±)-6-(1,3-dimethyl-1H-pyrazol-4-yl)-4-(3-(pyrimidin-5-yl)phenyl)-5,6-dihydro-4H-1,3-thiazin-2-amine•TFA], 2500 nM; to `Cn1cc([C@@H]2C[C@@H](c3cccc(-c4cncnc4)c3)N=C(N)S2)cn1` (racemic) [Example 27, (±)-6-(1-methyl-1H-pyrazol-4-yl)-4-(3-(pyrimidin-5-yl)phenyl)-5,6-dihydro-4H-1,3-thiazin-2-amine•TFA], 2600 nM. `Cc1nn(C)c(C)c1[C@@H]1C[C@@H](c2cccc(-c3cncnc3)c2)N=C(N)S1` (racemic) [Example 28, (±)-4-(3-(pyrimidin-5-yl)phenyl)-6-(1,3,5-trimethyl-1H-pyrazol-4-yl)-5,6-dihydro-4H-1,3-thiazin-2-amine•TFA] showed an IC50 greater than 30000 nM. For `Cc1noc(C)c1[C@@H]1C[C@@H](c2cc(-c3cncnc3)c(F)cc2F)N=C(N)S1` (racemic) [Example 29, (±)-4-(2,4-difluoro-5-(pyrimidin-5-yl)phenyl)-6-(3,5-dimethylisoxazol-4-yl)-5,6-dihydro-4H-1,3-thiazin-2-amine], the concentration for half-maximal inhibition (IC50) was 200 nM.
